Results as given in PubChem BioAssay AID328 (DTP/NCI, 2004).
Where “and” joins values, the source holds several entries; their conditions need not be identical. Equal entries are not always repeated. Toxic doses and inconclusive results are not listed.

System: BDF1 mice, P388 leukemia ip, median survival T/C
Assay: NCI In Vivo Anticancer Drug Screen. Data for tumor model P388 Leukemia (intraperitoneal) in B6D2F1 (BDF1) mice
Conditions: endpoint: median survival time, higher = longer survival
Procedure, shortened: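 Vehicle-dosed animals serve as the reference; survival of compound-dosed, tumour-implanted mice is divided by it.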

[1] = dose: 25.0 mg/kg/injection, schedule: Q01DX009 (ip), vehicle: saline with Tween-80
[2] = dose: 25.0 mg/kg/injection, schedule: Q04DX003 (ip), vehicle: saline with Tween-80
[3] = dose: 50.0 mg/kg/injection, schedule: Q01DX009 (ip), vehicle: saline with Tween-80
[4] = dose: 50.0 mg/kg/injection, schedule: Q04DX003 (ip), vehicle: saline with Tween-80
[5] = dose: 100.0 mg/kg/injection, schedule: Q04DX003 (ip), vehicle: saline with Tween-80
[6] = dose: 100.0 mg/kg/injection, schedule: Q01DX009 (ip), vehicle: saline with Tween-80
[7] = dose: 100.0 mg/kg/injection, schedule: Q01DX009 (ip), vehicle: saline
[8] = dose: 400.0 mg/kg/injection, schedule: Q01DX009 (ip), vehicle: saline
[9] = dose: 100.0 mg/kg/injection, schedule: Q04DX003 (ip), vehicle: saline
[10] = dose: 200.0 mg/kg/injection, schedule: Q04DX003 (ip), vehicle: saline
[11] = dose: 400.0 mg/kg/injection, schedule: Q04DX003 (ip), vehicle: saline
[12] = dose: 50.0 mg/kg/injection, schedule: Q04DX003 (ip), vehicle: saline
[13] = dose: 12.5 mg/kg/injection, schedule: Q04DX003 (ip), vehicle: saline with Tween-80

C=C1C(C)C2C(Cc3ccccc3)NC(=O)C23C(OC(C)=O)C=CC(C)(O)C(=O)C(C)C/C=C/C3C1O (configuration not stated)
T/C (dose: 0.62 mg/kg/injection, schedule: Q01DX009 (ip), vehicle: saline with Tween-80): 104 % of control | T/C (dose: 1.25 mg/kg/injection, schedule: Q01DX009 (ip), vehicle: saline with Tween-80): 110 % of control | T/C (dose: 1.6 mg/kg/injection, schedule: Q01DX009 (ip), vehicle: saline): 157 % of control | T/C (dose: 2.5 mg/kg/injection, schedule: Q01DX009 (ip), vehicle: saline): 172 % of control

CC(/C=C/C(O)=C1/C(=O)CNC1=O)=C\[C@@H](C)[C@H]1O[C@@]2(C)O[C@H](C(=O)[C@@H]3O[C@@]32C)[C@@H]1C
T/C (dose: 3.13 mg/kg/injection, schedule: Q01DX009 (ip), vehicle: saline with Tween-80): 108 % of control | T/C (dose: 6.25 mg/kg/injection, schedule: Q01DX009 (ip), vehicle: saline with Tween-80): 105 % of control | T/C (dose: 12.5 mg/kg/injection, schedule: Q01DX009 (ip), vehicle: saline with Tween-80): 103 % of control | T/C [1]: 100 % of control

Cc1ccc(C)c(CCN)c1
T/C [1]: 122 % of control | T/C [2]: 100 % of control | T/C [3]: 104 % of control | T/C [4]: 100 % of control | T/C [5]: 100 % of control

C[C@@H]1C[C@H]2CC[C@H](O2)[C@H](C)C(=O)O[C@@H](C)C[C@@H]2CC[C@@H](O2)[C@@H](C)C(=O)O[C@H](C)C[C@H]2CC[C@H](O2)[C@H](C)C(=O)O[C@@H](C)C[C@@H]2CC[C@@H](O2)[C@@H](C)C(=O)O1
T/C [3]: 90 % of control | T/C [6]: 109 % of control | T/C [5]: 104 % of control | T/C (dose: 200.0 mg/kg/injection, schedule: Q04DX003 (ip), vehicle: saline with Tween-80): 86 % of control

COc1ccc(S(=O)(=O)c2ccccc2)c2nonc12
T/C [1]: 90 % of control | T/C [3]: 86 % of control | T/C [6]: 92 % of control

CC(C)(C)CN1CN(CC(C)(C)C)CN(CC(C)(C)C)C1
T/C (dose: 100.0 mg/kg/injection, schedule: Q04DX002 (ip), vehicle: saline with Tween-80): 94 % of control | T/C (dose: 200.0 mg/kg/injection, schedule: Q04DX002 (ip), vehicle: saline with Tween-80): 97 % of control | T/C (dose: 400.0 mg/kg/injection, schedule: Q04DX002 (ip), vehicle: saline with Tween-80): 94 % of control

C#CC1(O)CC[C@H]2[C@@H]3CCC4=CCCC[C@@H]4[C@H]3CC[C@@]21C (some centres not stated)
T/C [7]: 95 % of control | T/C (dose: 100.0 mg/kg/injection, schedule: Q04DX003 (ip), vehicle: alcohol): 100 % of control | T/C (dose: 200.0 mg/kg/injection, schedule: Q01DX009 (ip), vehicle: saline): 90 % of control | T/C (dose: 200.0 mg/kg/injection, schedule: Q04DX003 (ip), vehicle: alcohol): 95 % of control | T/C [8]: 86 % of control | T/C (dose: 400.0 mg/kg/injection, schedule: Q04DX003 (ip), vehicle: alcohol): 105 % of control

CN1CCN(c2cc3c(cc2[N+](=O)[O-])no[n+]3[O-])CC1
T/C (dose: 15.0 mg/kg/injection, schedule: Q01DX009 (ip), vehicle: saline with Tween-80): 123 % of control | T/C (dose: 30.0 mg/kg/injection, schedule: Q01DX009 (ip), vehicle: saline with Tween-80): 120 % of control | T/C (dose: 60.0 mg/kg/injection, schedule: Q01DX009 (ip), vehicle: saline with Tween-80): 103 % of control

CCOC(=O)C(C)(C)CSC(C)(C)C(=O)OCC
T/C [9]: 90 % of control | T/C [10]: 90 % of control | T/C [11]: 95 % of control

C=C1C(=O)CCC1C(=O)O (configuration not stated)
T/C [7]: 100 % of control and 109 % of control | T/C (dose: 178.0 mg/kg/injection, schedule: Q04DX003 (ip), vehicle: saline): 106 % of control | T/C (dose: 266.0 mg/kg/injection, schedule: Q04DX003 (ip), vehicle: saline): 108 % of control | T/C [8]: 150 % of control and 154 % of control and 162 % of control | T/C [11]: 123 % of control | T/C (dose: 600.0 mg/kg/injection, schedule: Q01DX009 (ip), vehicle: saline): 170 % of control and 182 % of control | T/C (dose: 900.0 mg/kg/injection, schedule: Q01DX009 (ip), vehicle: saline): 175 % of control

COc1ccc(/C=C/c2ccc3ccccc3[n+]2C)cc1OC
T/C (dose: 18.75 mg/kg/injection, schedule: Q01DX009 (ip), vehicle: saline): 150 % of control | T/C (dose: 37.5 mg/kg/injection, schedule: Q01DX009 (ip), vehicle: saline): 160 % of control

O=C(O)c1[nH]c(=O)[nH]c(=O)c1F
T/C (dose: 2.5 mg/kg/injection, schedule: Q01DX010 (ip), vehicle: saline): 152 % of control | T/C (dose: 10.0 mg/kg/injection, schedule: Q01DX010 (ip), vehicle: saline): 166 % of control

CN(C)c1ccc(C2OC3(CCCCC3)C[N+]23CCCC3)cc1 (configuration not stated)
T/C (dose: 18.0 mg/kg/injection, schedule: Q01DX009 (ip), vehicle: saline): 110 % of control | T/C (dose: 25.0 mg/kg/injection, schedule: Q04DX003 (ip), vehicle: saline): 95 % of control | T/C (dose: 28.0 mg/kg/injection, schedule: Q01DX009 (ip), vehicle: saline): 105 % of control | T/C (dose: 40.0 mg/kg/injection, schedule: Q01DX009 (ip), vehicle: saline): 94 % of control | T/C [12]: 100 % of control | T/C (dose: 75.0 mg/kg/injection, schedule: Q01DX001 (ip), vehicle: Klucel (hydroxypropylcellulose) (HPC)): 104 % of control | T/C [9]: 90 % of control | T/C (dose: 150.0 mg/kg/injection, schedule: Q01DX001 (ip), vehicle: Klucel (hydroxypropylcellulose) (HPC)): 100 % of control

Cc1ccc(CC(=O)O)cc1C
T/C (dose: 44.0 mg/kg/injection, schedule: Q04DX003 (ip), vehicle: saline with Tween-80): 109 % of control | T/C (dose: 66.0 mg/kg/injection, schedule: Q04DX003 (ip), vehicle: saline with Tween-80): 104 % of control | T/C [5]: 104 % of control | T/C (dose: 150.0 mg/kg/injection, schedule: Q04DX003 (ip), vehicle: saline with Tween-80): 104 % of control

CCC(=O)c1cc(OC)cc(OC)c1
T/C [9]: 115 % of control | T/C [10]: 120 % of control | T/C [11]: 120 % of control

O=C1C(Cl)=CC(=NS(=O)(=O)c2ccccc2)C=C1Cl
T/C (dose: 3.13 mg/kg/injection, schedule: Q04DX003 (ip), vehicle: saline with Tween-80): 110 % of control | T/C (dose: 6.25 mg/kg/injection, schedule: Q04DX003 (ip), vehicle: saline with Tween-80): 110 % of control | T/C [13]: 110 % of control

OCC[P+](c1ccccc1)(c1ccccc1)c1ccccc1
T/C (dose: 25.0 mg/kg/injection, schedule: Q01DX001 (ip), vehicle: saline): 108 % of control | T/C (dose: 50.0 mg/kg/injection, schedule: Q01DX001 (ip), vehicle: saline): 98 % of control

Oc1ccc(-c2n[nH]c3c2CCCc2ccccc2-3)cc1
T/C [13]: 109 % of control | T/C [2]: 118 % of control | T/C [4]: 113 % of control

COc1ccc(NC(=O)Nc2ccccc2C(F)(F)F)cc1
T/C (dose: 100.0 mg/kg/injection, schedule: Q01DX001 (ip), vehicle: saline with Tween-80): 95 % of control | T/C (dose: 200.0 mg/kg/injection, schedule: Q01DX001 (ip), vehicle: saline with Tween-80): 100 % of control | T/C (dose: 400.0 mg/kg/injection, schedule: Q01DX001 (ip), vehicle: saline with Tween-80): 90 % of control

C=CC[N+](CC=C)(CC=C)CC[N+](CC=C)(CC=C)CC=C
T/C (dose: 12.5 mg/kg/injection, schedule: Q01DX009 (ip), vehicle: water): 102 % of control | T/C [13]: 104 % of control | T/C (dose: 25.0 mg/kg/injection, schedule: Q01DX009 (ip), vehicle: water): 105 % of control | T/C [2]: 104 % of control | T/C (dose: 50.0 mg/kg/injection, schedule: Q01DX009 (ip), vehicle: water): 115 % of control | T/C [4]: 101 % of control

CC12C3C(=O)NC45CCCC41C5(c1ccccc1)C32c1ccccc1 (configuration not stated)
T/C (dose: 100.0 mg/kg/injection, schedule: Q01DX001 (ip), vehicle: saline sonified): 95 % of control | T/C (dose: 200.0 mg/kg/injection, schedule: Q01DX001 (ip), vehicle: saline sonified): 95 % of control | T/C (dose: 400.0 mg/kg/injection, schedule: Q01DX001 (ip), vehicle: saline sonified): 86 % of control

CCCC(N=Cc1ccccc1O)C(=O)O.CCCC(N=Cc1ccccc1O)C(=O)O.[Fe] (configuration not stated)
T/C (dose: 12.5 mg/kg/injection, schedule: Q01DX009 (ip), vehicle: saline): 86 % of control | T/C (dose: 25.0 mg/kg/injection, schedule: Q01DX009 (ip), vehicle: saline): 90 % of control | T/C (dose: 50.0 mg/kg/injection, schedule: Q01DX009 (ip), vehicle: saline): 90 % of control | T/C [12]: 90 % of control

CC(NC(=O)c1ccc(Cl)cc1Cl)c1ccccc1 (configuration not stated)
T/C (dose: 100.0 mg/kg/injection, schedule: Q01DX001 (ip), vehicle: other): 100 % of control | T/C (dose: 400.0 mg/kg/injection, schedule: Q01DX001 (ip), vehicle: other): 95 % of control
